Tests used:
Type in all cases: physicochemical
[1] = Fluorescence rating / quantum yield in aqueous solution; conditions: for Fluorescence: relative scale of 1 to 10 where 10 is best, excitation at maximum absorbance wavelength, constant concentration and pH
Source text: The fluorescence ratings shown in the Table are based on the maximum fluorescence obtainable from an aqueous carbazine dye solution with excitation at the maximum absorbance wavelength for the particular dye, but with concentrations and pH constant between all dyes. […] Quantum yields of the acid forms of the dyes appears as high as the base forms. The carbazine dye of Example 4, sold commercially as "CARBAZINE 720" (Exciton, Inc., Dayton, Ohio), has a quantum yield of approximately 50% in aqueous solution containing base.

[2] = pKa of the dyes in aqueous solution, derived from the absorbance spectra
Source text: The pKa values, i.e. the approximate pH values of an aqueous solution of the dye where the acid and base forms of the dye are present in equal concentrations, were derived from the absorbance spectra and are listed in the Table below. As mentioned above, indicator dyes are generally most sensitive to pH changes near their pKa s.

[3] = Absorbance and fluorescence emission spectra of acid and base forms of the dyes; conditions: Table, footnote c
Description: Certain properties of the carbazine dyes of Examples 1-7 were determined. Spectral data were obtained either with a Hewlett Packard Model 8452A Diode Array Spectrophotometer or a Perkin Elmer Model LS 50B Luminescence Spectrometer. All of the dyes are similar in their absorbance and emission spectra, with only slight differences in peak locations, ratios of absorbance of acid to absorbance of base, and pKa s. The unmodified dyes show large separation between absorbance peaks for acid and base forms. Typically, the acid form has a peak absorbance at about 480 nm, and the base form has a peak absorbance at about 660 nm. Fluorescence emission of the base form has a well-defined single peak at approximately 690 nm.

O=C1C=CC2(C=C1)C1=CC(=O)C=CC1=Nc1ccc(O)cc12 [Example 1, 7-hydroxyspiro[acridine-9,1'-cyclohexa-2',5'-diene]-2(9H),4'-dione]
Fluorescence [1]: 2 | pKa [2]: 6.5 | Absorbance ratio of acid/base [3]: 0.426

CC1=C(C)C2(C3=CC(=O)C=CC3=Nc3ccc(O)cc32)C(C)=C(C)C1=O [Example 4, 7-hydroxy-2',3',5',6'-tetramethylspiro[acridine-9,1'-cyclohexa-2', 5'-diene]-2(9H), 4'-dione]
quantum yield ([1]; aqueous solution containing base): approximately 50% | Fluorescence [1]: 10 | pKa [2]: 6.5 | Absorbance ratio of acid/base [3]: 0.388

O=C1C=CC2=Nc3ccc(O)cc3C3(C=CC(=O)C4=C3CCCC4)C2=C1 (stereo not shown) [Example 5]
Fluorescence [1]: 8 | pKa [2]: 6.7 | Absorbance ratio of acid/base [3]: 0.387

CC(C)(C)C1=CC2(C=CC1=O)C1=CC(=O)C=CC1=Nc1ccc(O)cc12 (stereo not shown) [Example 7]
Fluorescence [1]: 6 | pKa [2]: 7.2 | Absorbance ratio of acid/base [3]: 0.324

CC1=CC(=O)C(C)=C(C)C12C1=CC(=O)C=CC1=Nc1ccc(O)cc12 (stereo not shown) [Example 3]
Fluorescence [1]: 10 | pKa [2]: 6.5 | Absorbance ratio of acid/base [3]: 0.380

CC1=CC(=O)C=C(C)C12C1=CC(=O)C=CC1=Nc1ccc(O)cc12 [Example 2]
Fluorescence [1]: 7 | pKa [2]: 6.5 | Absorbance ratio of acid/base [3]: 0.391

CC1=CC(=O)C=C(C(C)C)C12C1=CC(=O)C=CC1=Nc1ccc(O)cc12 (stereo not shown) [Example 6]
Fluorescence [1]: 7 | pKa [2]: 6.4 | Absorbance ratio of acid/base [3]: 0.377
